# From US8426169B2, “Glycosylate derivatives of mithramycin, method of preparation and uses thereof” (University of Kentucky Research Foundation, priority 2007, dated 2013)
# Like-named read-outs stand apart in the source and are kept apart here.
# Assays:
# Type in all cases: cell-based
# MDA-MB-231 (breast) = assay: SRB colorimetric cell growth and viability assay, MDA-MB-231; conditions: 48 hours of exposure, read-out: GI50, concentration at which the compound assayed inhibits 50% of the cell growth compared to non-treated cells
# A549 (lung) = assay: SRB colorimetric cell growth and viability assay, A549; conditions: 48 hours of exposure, read-out: GI50, concentration at which the compound assayed inhibits 50% of the cell growth compared to non-treated cells
# HT29 (colon) = assay: SRB colorimetric cell growth and viability assay, HT29; conditions: read-out: GI50, concentration at which the compound assayed inhibits 50% of the cell growth compared to non-treated cells
# [1] = Homo sapiens, HT-29, 48 hours of exposure
Molecule,GI50 (MDA-MB-231 (breast)),GI50 (A549 (lung)),GI50 (HT29 (colon); 48 hours of exposure),GI50 (MDA-MB-231 (breast); Homo sapiens),GI50 (A549 (lung); Homo sapiens),GI50 (HT29 (colon); [1])
6-dediolivosyl-6-β-D-amicetosyl-deoliosyl-3C-β-D-olivosyl-MTM [formula XXI],470 nM,440 nM,940 nM,–,–,–
6-dediolivosyl-6-β-D-amicetosyl-deoliosyl-demycarosyl-3C-β-D-boivinosyl-MTM [formula XVIII],400 nM,750 nM,2010 nM,–,–,–
6-dediolivosyl-6-β-D-amicetosyl-deoliosyl-demycarosyl-3C-β-D-olivosyl-3D-β-D-digitoxosyl-MTM [formula XX],> 10000 nM,> 10000 nM,> 10000 nM,–,–,–
"CO[C@H](C(=O)[C@@H](O)[C@@H](C)O)[C@@H]1Cc2cc3cc(O[C@H]4C[C@@H](O[C@H]5C[C@@H](O)[C@H](O)C(C)O5)[C@H](O)C(C)O4)c(C)c(O)c3c(O)c2C(=O)[C@H]1O[C@H]1C[C@@H](O[C@H]2C[C@H](O[C@H]3C[C@](C)(O)[C@H](O)C(C)O3)[C@@H](O)C(C)O2)[C@H](O)C(C)O1 (stereo partly drawn) [formula IX, deoliosyl-3C-α-L-digitoxosyl-MTM]",–,–,–,1940 nM,2670 nM,3870 nM
CO[C@H](C(=O)[C@@H](O)[C@@H](C)O)[C@@H]1Cc2cc3cc(O[C@H]4C[C@@H](O[C@H]5C[C@@H](O)[C@H](O)C(C)O5)[C@H](O)C(C)O4)c(C)c(O)c3c(O)c2C(=O)[C@H]1O[C@H]1C[C@@H](O[C@H]2C[C@@H](O[C@H]3C[C@@H](O)[C@H](O)C(C)O3)[C@@H](O)C(C)O2)[C@H](O)C(C)O1 (stereo partly drawn) [formula VIII],–,–,–,230 nM,190 nM,270 nM
"CO[C@H](C(=O)[C@@H](O)[C@@H](C)O)[C@@H]1Cc2cc3cc(O[C@H]4C[C@@H](O[C@H]5C[C@@H](O)[C@H](O)C(C)O5)[C@H](O)C(C)O4)c(C)c(O)c3c(O)c2C(=O)[C@H]1O[C@H]1C[C@@H](O[C@H]2C[C@](C)(O)[C@H](O)C(C)O2)[C@H](O)C(C)O1 (stereo partly drawn) [formula X, deoliosyl-3C-β-D-mycarosyl-MTM]",–,–,–,370 nM,480 nM,930 nM
"CO[C@H](C(=O)[C@@H](O)[C@@H](C)O)[C@@H]1Cc2cc3cc(O[C@H]4C[C@@H](O)[C@H](O)C(C)O4)c(C)c(O)c3c(O)c2C(=O)[C@H]1O[C@H]1C[C@@H](O[C@H]2C[C@@H](O[C@H]3C[C@](C)(O)[C@H](O)C(C)O3)[C@@H](O)C(C)O2)[C@H](O)C(C)O1 (stereo partly drawn) [formula XI, 3A-deolivosyl-MTM]",–,–,–,450 nM,750 nM,710 nM
"CO[C@H](C(=O)[C@@H](O)[C@@H](C)O)[C@@H]1Cc2cc3cc(O[C@H]4C[C@@H](O[C@H]5C[C@@H](O)[C@H](O)C(C)O5)[C@H](O)C(C)O4)c(C)c(O)c3c(O)c2C(=O)[C@H]1O[C@H]1C[C@@H](O[C@H]2C[C@@H](O)[C@@H](O)C(C)O2)[C@H](O)C(C)O1 (stereo partly drawn) [formula XII, demycarosyl-MTM]",–,–,–,1280 nM,1810 nM,> 10000 nM
CO[C@H](C(=O)[C@@H](O)[C@@H](C)O)[C@@H]1Cc2cc3cc(O[C@H]4CC[C@H](O)C(C)O4)c(C)c(O)c3c(O)c2C(=O)[C@H]1O[C@H]1C[C@@H](O[C@H]2C[C@@H](O[C@H]3C[C@](C)(O)[C@H](O)C(C)O3)[C@@H](O)C(C)O2)[C@H](O)C(C)O1 (stereo partly drawn) [formula XIII],–,–,–,1380 nM,1490 nM,3190 nM
deoliosyl-demycarosyl-3C-β-D-boivinosyl-MTM [formula XVII],3720 nM,> 10000 nM,> 10000 nM,–,–,–
deoliosyl-demycarosyl-3C-β-D-olivosyl-3D-β-D-digitoxosyl-MTM [formula XIX],690 nM,910 nM,5980 nM,–,–,–
